Test results reported in paper PMC11110763, “Carltonine-derived compounds for targeted butyrylcholinesterase inhibition” (RSC Medicinal Chemistry, 2024).
≈ marks a conversion by molar mass, not a printed value.

Assays:
[1] = Cytotoxicity MTT assay, human neuroblastoma cell line; conditions: SH-SY5Y neuroblastoma cells
in vitro = conditions: human, HepG2 hepatocellular carcinoma cells
Description: (§1) For passaging, the cells were treated with trypsin/EDTA (Sigma-Aldrich, St. Louis, USA) at 37 °C and then harvested. For cytotoxicity evaluation, the cells treated with the studied substances were used, while untreated HepG2 cells served as the control group. The cells were seeded in a 96-well plate at a density of 5 × 10^4 cells per well and incubated for 24 hours. All tested compounds were dissolved in DMSO to prepare 10 mM stock solutions and subsequently diluted to the desired concentration just before the cell treatment (the highest DMSO concentration used was 0.5% v/v). Positive and negative controls were included, as well, and the activity of all the samples was determined in triplicate. Plates were incubated for 24 h in a humidified atmosphere containing 5% CO2 at 37 °C. […] Afterwards, the formazan crystals were dissolved in DMSO, and the absorbance of samples was recorded at 570 nm (BioTek, Synergy Neo2 Multi-Mode Reader NEO2SMALPHAB; BioTek, Winooski, VT, USA). IC50 values were calculated by nonlinear regression from a semi-logarithmic plot of incubation concentration versus percentage of absorbance relative to untreated controls using GraphPad Prism software (version 9; GraphPad Software, Inc., La Jolla, CA, USA).

[2] = target: T1, recombinant BChE (hBChE, E.C. 3.1.1.8) (Homo sapiens, UniProt P06276); assay: biochemical; assay type: biochemical; conditions: for IC50: mean ± SEM of three independent measurements, each in triplicate; for inhibition at 10 µM: tested at 10 μM compound concentration, read-out: % inhibition of hBChE ± SEM
T1 construct: purchased Sigma-Aldrich, Prague, Czech Republic
Description: The activities of hAChE and hBChE were determined using a modified Ellman's method, as described in ref. [56] and [62] against recombinant AChE (hAChE, E.C. 3.1.1.7) and recombinant BChE (hBChE, E.C. 3.1.1.8), both of which were purchased from Sigma-Aldrich, Prague, Czech Republic. […] The other compounds used, including the phosphate buffer solution (PBS, pH = 7.4), 5,5′-dithio-bis(2-nitrobenzoic) acid (Ellman's reagent, DTNB), acetylthiocholine (ATChI), and butyrylthiocholine (BTChI), were commercially available and purchased from Sigma-Aldrich in Prague, Czech Republic. In brief, the corresponding enzyme (8.3 μL), 5 mM DTNB (283 μL), and the sample dilution in dimethyl sulfoxide (DMSO) at various concentrations (8.3 μL) were added to 96-well microplates (BRAND GMBH + CO KG, Wertheim, Germany) and pre-incubated for 5 minutes in the assay medium. The reaction was initiated by adding 10 mM substrate (ATChI or BTChI, 33.3 μL). […] Each measurement was repeated in triplicate. The percentage of inhibition was calculated using the following formula: [drawing 8] where ΔABl represents the increase in absorbance of the blank sample, and ΔASa represents the increase in absorbance of the measured sample. […] Microsoft Excel (Redmond, WA, USA) and GraphPad Prism version 7 for Windows (GraphPad Software, San Diego, CA, USA) were used for the statistical data evaluation.

[3] = PAMPA assay (BBB penetration); conditions: for Pe ± SEM: PAMPA, PBS pH 7.4, n = 3; for BBB penetration estimation CNS (+/−): class from PAMPA Pe
Description: Furthermore, we experimentally determined the ability of 12 highlighted hBChE inhibitors to pass through the BBB using a parallel artificial membrane permeation assay (PAMPA) as described by Di et al.[65] […] The methodology was validated on a set of compounds (positive and negative controls) recognized for their activity in the CNS (Table 3).
In this study, it has been used as a non-cell-based in vitro assay carried out in a coated 96-well membrane filter. The filter membrane of the donor plate was coated with PBL (polar brain lipid, Avanti, USA) in dodecane (4 μl of 20 mg ml^−1 PBL in dodecane) and the acceptor well was filled with 300 μl of PBS (pH 7.4; VA). The tested compounds were dissolved first in DMSO and subsequently diluted with PBS (pH 7.4) to final concentrations of 50–100 μM in the donor wells. […] About 300 μL of the donor solution was added to the donor wells (VD) and the donor filter plate was carefully put on the acceptor plate so that the coated membrane was “in touch” with both the donor solution and acceptor buffer. In principle, the test compound diffused from the donor well through the lipid membrane (area = 0.28 cm^2) to the acceptor well. The concentration of the drug in both the donor and acceptor wells was assessed after 3, 4, 5, and 6 h of incubation in quadruplicate using the UV plate reader Spark (Tecan Group Ltd, Switzerland) at the maximum absorption wavelength of each compound. Besides that, a solution of theoretical compound concentration, simulating the equilibrium state established if the membrane were ideally permeable, was prepared and assessed as well. The concentration of the compounds in the donor and acceptor wells and equilibrium concentration were calculated from the standard curve and expressed as the permeability (Pe) according the equation: [drawing 10] where [drawing 11]

HepG2 cells = conditions: human, 24 h
Description: as §1

Human plasma stability = assay type: in vitro ADME; conditions: percentage of the remaining compound after 120 min incubation, 1 μM
Description: Compound 33 was incubated with human pooled plasma (Batch S00G71, Biowest, France). Briefly, compounds were dissolved in DMSO to produce stock sample solutions. 10 μL of stock solution was added to 990 μL of human plasma to initiate the reaction. […] The reactions were stopped by transferring 200 μL of incubate to 200 μL of acetonitrile containing the internal standard (IS; 67) at appropriate time points (0, 15, 30, 60 and 120 min) and centrifuged at 12 000 rpm for 5 min at 4 °C to precipitate the protein. After that, […] of supernatant was transferred to the vial and analyzed by LC-MS.
The HPLC system used in this study was Dionex Ultimate 3000 UHPLC RS consisting of an RS pump, RS column compartment, RS autosampler and diode array detector controlled by Chromeleon (version 7.2.9. build 11323) software (Thermo Fisher Scientific, Germering, Germany) connected to a Q Exactive Plus Orbitrap mass spectrometer with Thermo Xcalibur (version 3.1.66.10.) software (Thermo Fisher Scientific, Bremen, Germany). […]
For the determination of plasma stability, the percentage of the remaining compound was calculated from the ratio between peak area ratios (compound peak area/internal standard peak area) obtained at incubation times 0 and 120 min.

hBChE = hBChE (Homo sapiens, UniProt P06276); assay: Enzyme kinetic analysis of hBChE inhibition; assay type: biochemical
Description: A kinetic study was performed to estimate the interaction mode of derivative 33 with hBChE. The inhibition kinetics was calculated from rate curves that were determined at several concentrations of the tested compound and substrate. The type of enzyme inhibition and appropriate kinetic parameters (Ki and Ki′) were determined using nonlinear regression analysis. Results for each type of inhibition model (competitive, non-competitive, uncompetitive and mixed) were compared by the sum-of-squares F-test. […].
The kinetic study of hBChE was conducted using the modified Ellman's method mentioned earlier,[62,74,75] with slight variations applied at the collaborating laboratory. Solutions of the corresponding ChE in phosphate buffer (PB) were prepared to achieve a final activity of 0.002 U μL^−1. The solutions of the tested compounds (8.3 μL at varying concentrations) were pre-incubated for 5 minutes in the assay medium. […] The increase in absorbance was measured for 1 minute at 412 nm using the Multimode microplate reader Synergy 2 (BioTek Inc., Winooski, VT, USA). Nunc flat-bottomed polystyrene 96-well microplates (ThermoFisher Scientific, USA) were used for these measurements. To calculate the resulting measured activity (expressed as the percentage of inhibition I), the following formula was applied: [drawing 9] where ΔAi indicates the absorbance change provided by adequate enzyme exposed to the corresponding inhibitor and ΔA0 indicates the absorbance change when a solution of PB was added instead of a solution of the inhibitor. Microsoft Excel (Redmond, WA, USA) and GraphPad Prism version 8.30 for Windows (GraphPad Software, San Diego, CA, USA) were employed for the statistical data analysis. The values of Vmax and Km for the Michaelis–Menten kinetics, as well as the values of Ki (enzyme–inhibitor dissociation constant) and Ki′ (enzyme–substrate–inhibitor dissociation constant), were calculated through nonlinear regression from the substrate velocity curves. Linear regression was used for the calculation of Lineweaver–Burk plots. […]

[4] = Human liver microsomal (HLM) stability; assay type: in vitro ADME; conditions: pooled human liver microsomes
Description: Briefly, compounds were dissolved in DMSO to produce stock sample solutions. […] Subsequently, 400 μL of supernatant was transferred to the vial and analyzed by LC-MS. Three types of blank samples were prepared in the same way, with a one-step exception. In the biological blank sample, 5 μL of DMSO was added instead of 5 μL stock solution, in the chemical blanks, 50 μL of water was added instead of HLM, and in the case of the control blank sample, 25 μL of water was added instead of 25 μL of RapidStart System.
A Reverse-phase C18 column Kinetex EVO (Phenomenex, Torrance, CA, USA) was used as a stationary phase, and purified water with 0.1% formic acid (mobile phase A) and LC-MS grade acetonitrile with 0.1% formic acid (mobile phase B) were used as the mobile phases. […] The column temperature was kept constant at 27 °C, the flow of the mobile phase was 0.5 mL min^−1, and the injection volume was 1 μL. […]
The peak areas of the compounds (Acmp) and internal standards (AIS) were detected in positive mode in extracted ion chromatograms from the mass spectrometer data. For the determination of microsomal stability, the Acmp/AIS was calculated as logarithmized. […]

[5] = Aqueous solubility determination; assay type: physicochemical; conditions: ultrapure distilled water containing 5% DMSO, 37 °C
Description: Briefly, 200 μl of the aqueous solution of compound 33 at the concentration of 50 μM was analyzed for the UV/vis absorption spectrum using a multimode microplate reader (TECAN Spark®, Tecan Group Ltd., Switzerland) and the wavelength of maximum absorbance was used for further testing of the corresponding compound. Subsequently, six consecutive concentrations were prepared for the compound by serial dilution of 50 μM standard solution and the absorbance of these solutions (200 μl) was measured by a microplate reader. The data were used to calculate the calibration curve by the linear regression method. Finally, the over-saturated solutions of the tested compound were prepared and incubated in an ultrasound water bath at 37 °C for 10 min. Then the solutions were centrifuged at 8000 RPM for 10 min and the UV/vis absorption of the supernatant was measured by a microplate reader. The obtained absorption value was used to calculate the maximum water solubility of the tested compound. In case the absorption value of the supernatant was higher than the calibration curve range, the supernatant was diluted with a 5% DMSO/water solution to match the calibration curve.

[6] = system: recombinant AChE (hAChE, E.C. 3.1.1.7); parameters: method as in PMID 32455879, PMID 36152726; conditions: template alkaloid, Fig. 1; cited from earlier work

T1 sequence (P06276 29-602): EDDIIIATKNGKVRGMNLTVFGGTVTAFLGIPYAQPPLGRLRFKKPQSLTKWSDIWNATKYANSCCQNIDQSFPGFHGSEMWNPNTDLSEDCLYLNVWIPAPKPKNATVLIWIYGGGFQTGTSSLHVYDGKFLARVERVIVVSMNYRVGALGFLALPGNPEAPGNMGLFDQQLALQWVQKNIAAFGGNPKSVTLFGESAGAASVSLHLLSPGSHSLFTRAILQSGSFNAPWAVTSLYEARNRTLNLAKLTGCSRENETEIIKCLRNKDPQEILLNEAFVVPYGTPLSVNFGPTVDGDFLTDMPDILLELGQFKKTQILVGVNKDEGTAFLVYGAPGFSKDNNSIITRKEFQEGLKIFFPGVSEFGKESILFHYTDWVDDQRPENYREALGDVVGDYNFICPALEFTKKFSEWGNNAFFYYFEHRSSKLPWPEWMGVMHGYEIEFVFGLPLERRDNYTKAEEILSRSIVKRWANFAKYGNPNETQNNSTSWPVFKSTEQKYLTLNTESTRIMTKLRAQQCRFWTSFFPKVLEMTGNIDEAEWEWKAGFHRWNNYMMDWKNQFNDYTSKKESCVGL
hBChE, sequence (P06276 29-602): as above

Structure (SMILES) | IC50 at 24 h [1] | IC50 at 24 h (in vitro) | IC50 [2] | inhibition at 10 µM [2] | Pe ± SEM [3] | BBB penetration estimation CNS (+/−) [3] | Safety index (HepG2 cells) | Plasma stability (Human plasma stability) | Ki (hBChE; enzyme–inhibitor dissociation constant, nonlinear regression) | Ki′ (hBChE; enzyme–substrate–inhibitor dissociation constant, nonlinear regression) | type of enzyme inhibition (hBChE; sum-of-squares F-test, p < 0.0002, Lineweaver–Burk plot) | microsomal CLint at 0.75 h, 3 µM ([4]; pH 7.4) | half-life at 0.75 h, 3 µM ([4]; pH 7.4, up to 45 min incubation, read-out: HLM T½) | solubility at 10 min [5] | IC50 [6]
C=CCOc1ccc(CCN(CC=C)Cc2ccc(OC)c(OCc3ccccc3)c2)cc1 [Compound 1, reference compound] | > 125 µM | – | – | – | – | – | – | – | – | – | – | – | – | – | –
Oc1ccc(CCNCc2cccc(OCc3ccccc3)c2)cc1 [Compound 4, 4-[2-({[3-(Benzyloxy)phenyl]methyl}amino)ethyl]phenol] | 21 ± 2.4 µM | 60 ± 4 µM | 0.193 ± 0.055 µM | 96 ± 0.8% | 14.0 ± 0.4 ×10^−6 cm s^−1 | CNS + (CNS (+) (high BBB permeation predicted): Pe (×10^−6 cm s^−1) > 4.0) | 310 | – | – | – | – | – | – | – | –
COc1ccccc1CCNCc1cccc(OCc2ccccc2)c1 [Compound 5, {[3-(Benzyloxy)phenyl]methyl}[2-(2-methoxyphenyl)ethyl]amine] | 16 ± 2.8 µM | 52 ± 10 µM | 0.4 ± 0.1 µM | 94 ± 0.4% | 6.2 ± 0.7 ×10^−6 cm s^−1 | CNS + (CNS (+) (high BBB permeation predicted): Pe (×10^−6 cm s^−1) > 4.0) | 130 | – | – | – | – | – | – | – | –
CC(CNCc1cccc(OCc2ccccc2)c1)c1ccccc1 (centres unmarked) [Compound 18, {[3-(Benzyloxy)phenyl]methyl}(2-phenylpropyl)amine] | 36 ± 1.4 µM | 55 ± 6.9 µM | 0.188 ± 0.023 µM | 96 ± 0.3% | 8.1 ± 0.6 ×10^−6 cm s^−1 | CNS + (CNS (+) (high BBB permeation predicted): Pe (×10^−6 cm s^−1) > 4.0) | 290 | – | – | – | – | – | – | – | –
Oc1ccc(CCNCc2ccc(OCc3ccccc3)cc2)cc1 [Compound 28, 4-[2-({[4-(Benzyloxy)phenyl]methyl}amino)ethyl]phenol] | 13 ± 1.2 µM | 85 ± 12 µM | 0.171 ± 0.063 µM | 97 ± 0.3% | 10.0 ± 0.5 ×10^−6 cm s^−1 | CNS + (CNS (+) (high BBB permeation predicted): Pe (×10^−6 cm s^−1) > 4.0) | 500 | – | – | – | – | – | – | – | –
CCCN(CCc1ccc(O)cc1)Cc1ccc(OCc2ccccc2)cc1 [Compound 33, 4-[2-({[4-(Benzyloxy)phenyl]methyl}(propyl)amino)ethyl]phenol] | 38 ± 3.5 µM | 93 ± 11 µM | 0.167 ± 0.018 µM | 95 ± 1.1% | 11.0 ± 2.2 ×10^−6 cm s^−1 | CNS + (CNS (+) (high BBB permeation predicted): Pe (×10^−6 cm s^−1) > 4.0) | 560 | 94.5% | 0.182 ± 0.028 µM | 1.619 ± 0.315 µM | mixed inhibition pattern | 161 µL/min/mg | 8.62 min | 267 µM (≈ 100 µg/mL) | –
CN(CCc1ccc(O)cc1)Cc1cc2c(cc1-c1cccc3c1N(C)CC3)OCO2 [carltonine B] | – | – | – | – | – | – | – | – | – | – | – | – | – | – | > 100 µM
